Patent US11590129B2, “Combination therapy with an antitumor alkaloid” (PHARMA MAR, S.A., priority 2010, dated 2023)
Where two headings read alike, the source gives them in different places. Starred links: 1 amine or outer side, 2 acyl side, 3 side chain; linkers in the order of their positions; H or OH if unused. Positions of bridges follow the written chain, without caps; N, C: chain ends. Non-standard residues stand in square brackets, D forms with d. Residues, ends and D or L forms follow the SMILES beside them. Chains are numbered I, II in the order given. Actinocin(9to1) = Cc1c2oc3c(C)ccc(C(=O)[*:1])c3nc-2c(C(=O)[*:2])c(N)c1=O; NMeV = CN[C@H](C(=O)O)C(C)C; Sar = CNCC(=O)O

Key:
[1] = test system: HepG2 human hepatocellular liver carcinoma cell line; assay: MTT cytotoxicity assay in HepG2 cells: IC50 of single agents and combinations with PM01183; assay type: cell-based; settings: Homo sapiens, HepG2, 72 h
Procedure: (§1) a. […] Briefly, cells were harvested and seeded in 96 well microtiter plates at a density of 5,000 cells in 150 μL of culture medium and incubated for 24 hours in drug-free medium before treatment with vehicle alone or test compounds for 72 h.
(§2) The cytotoxic effect was measured by the MTT reduction assay, in which 3-(4,5-Dimethylthiazol-2-yl)-2,5-diphenyltetrazolium bromide, a tetrazole, which is reduced to purple formazan in the mitochondria of living cells, was used. MTT (50 μL of 1 mg/mL stock solution) was added to the wells and incubated for 8 hours at 37° C. until formazan crystals were formed. After gently removing the culture medium, DMSO was added to dissolve the insoluble purple formazan product into a colored solution. […] Results were expressed as percentage of control cell growth.
(§3) b. In a second set of assays, A549 human tumor cells were incubated with PM01183 in combination with each of the agents mentioned above.
(§4) As a visual aid, response values were plotted on a scatter plot with dose ratios given on the x-axis and % response values on the y-axis. […] In cases where response values at the two endpoints were approximately equivalent, points lying above or below this predicted line of additivity could be interpreted as representing antagonistic or synergistic drug interaction, respectively.
(§5) Additional serial dilutions were prepared in serum-free culture medium to achieve a final 4× concentration. Aliquots of 50 μL of each diluted compound were added per well.
HepG2 was the human hepatocellular liver carcinoma cell line selected for this assay.

[2] = test system: SK-MEL-2 human melanoma cell line; assay: cells; settings: Homo sapiens, SK-MEL-2, 72 h
Procedure: as §1, §2, §3, §4, §5
SK-MEL-2 was the human melanoma cell line selected for this assay.

[3] = test system: HGC-27 tumors; assay: Human gastric tumor xenografts (HGC-27) in athymic nude mice, tumor volume % T/C; assay type: in vivo
Procedure: (§6) Female athymic nude mice (Harlan Laboratories Models, S.L. (Barcelona, Spain) were utilized for all experiments. Animals were housed in individually ventilated cages, up to ten per cage in a 12-hour light-dark cycle at 21-23° C. and 40-60% humidity. The mice were allowed free access to irradiated standard rodent diet and sterilized water. Animals were acclimated for at least 5 days prior to tumor implantation with a tumor cell suspension.
HGC-27 cells were grown at 37° C. with 5% CO2 in Iscove's modified Dulbeco's medium (IDMD).
(§7) PM01183 was provided in the form of vials of lyophilized PM01183 cake which was reconstituted with water for infusion to a concentration of 0.2 mg/mL. The PM01183 stock solution was further diluted in 5% glucose solution for injection to the dosing formulation concentrations. Cisplatin and 5-fluorouracil were provided as solutions prepared by diluting the product with 0.9% saline solution for injection to the target final concentration.
(§8) Dose level groups were administered either as single agents or in combination.
Comparison of the median tumor volume in the treatment groups (T) to the median tumor volume in the control group (T/C×100%) was used for evaluation of the antitumor efficacy.

[4] = test system: IGROV-1 human ovarian adenocarcinoma cell line; assay: cells
Procedure: as §1, §2, §3, §4, §5
IGROV-1 was the human ovarian adenocarcinoma cell line selected for this assay.

[5] = test system: A549 human lung carcinoma cell line; assay: MTT cytotoxicity assay in A549 cells: IC50 of single agents and combinations with PM01183; assay type: cell-based
Procedure: as §5
A549 was the human lung carcinoma cell line selected for this assay.
as §1, §2, §3, §4

[6] = test system: HGC-27 human gastric carcinoma cell line; assay: cells
Procedure: as §1, §2, §3, §4, §5
HGC-27 was the human gastric carcinoma cell line selected for this assay.

[7] = test system: HT-29 human colon adenocarcinoma cell line; assay: cells
Procedure: as §1, §2, §3, §4, §5
HT-29 was the human colon adenocarcinoma cell line selected for this assay.

[8] = test system: U87-MG human glioblastoma cell line; assay: cells; settings: Homo sapiens, U-87 MG, 72 h
Procedure: as §1, §2, §3, §4, §5
U87-MG was the human glioblastoma cell line selected for this assay.

[9] = test system: MDA-MB-231 human breast adenocarcinoma cell line; assay: cells
Procedure: as §1, §2, §3, §4, §5

[10] = test system: RXF-393 human kidney carcinoma cell line; assay: cells
Procedure: as §1, §2, §3, §4, §5

[11] = test system: PC-3 human prostate cancer cell line; assay: cells
Procedure: as §1, §2, §3, §4, §5
PC-3 was the human prostate adenocarcinome cell line selected for this assay.

[12] = test system: A673 human rhabdomyosarcoma cell line; assay: cells
Procedure: as §1, §2, §3, §4, §5
A673 was the human rhabdomyosarcoma cell line selected for this assay.

[13] = test system: PANC-1 human pancreatic carcinoma cell line; assay: cells
Procedure: as §1, §2, §3, §4, §5
PANC-1 was the human pancreatic carcinoma cell line selected for this assay.

[14] = test system: HT1080 tumors; assay: Human fibrosarcoma (HT1080) orthotopically implanted in athymic nude mice, total diameter (tumor+leg) % T/C; assay type: in vivo
Procedure: as §6
HT1080 cells were grown at 37° C. with 5% CO2 in Minimum Essential Medium Eagle (MEME). Each animal was orthotopically implanted into gastroecnemius muscle by an intramuscular injection using 26G needle and a 1 cc syringe, with 5×10^6 HT1080 cells, from in vitro passage 9, suspended in serum free medium, without antibiotics.
Total diameter (tumor+leg) measurements were determined by using digital caliper (Fowler Sylvac, S235PAT). This total diameter and animal body weights were measured 2-3 times per week starting from the first day of treatment.
Treatment tolerability was assessed by monitoring body weight evolution, clinical signs as well as evidences of local damage in the injection site.
as §7, with “Dacarbazine was” for “Cisplatin and 5-fluorouracil were”, “in the form of a solution” for “as solutions”, “5% glucose” for “0.9% saline”
as §8
Comparison of the median total diameter (tumor+leg) in the treatment groups (T) to the median total diameter (tumor+leg) in the control group (T/C×100%) was used for evaluation of the antitumor efficacy.

[15] = 5-fluorouracil 12.5 mg/kg iv days 0,7
[16] = 5-fluorouracil 37.5 mg/kg iv days 0,7
[17] = 5-fluorouracil 50.0 mg/kg iv days 0,7

## O=c1[nH]cc(F)c(=O)[nH]1 [5-FU, 5-fluorouracil]
[1]
  IC50: 4.5 µM
[2]
  IC50: 700 µM
[3]; [15]
  % T/C on day 0: 100.7%
  % T/C on day 2: 81.7%
  % T/C on day 5: 101.3%
  % T/C on day 7: 102.8%
  % T/C on day 9: 98.6%
  % T/C on day 12: 90.5%
  % T/C on day 14: 83.8%
[3]; [16]
  % T/C on day 0: 99.4%
  % T/C on day 2: 86.9%
  % T/C on day 5: 86.9%
  % T/C on day 7: 78.6%
  % T/C on day 9: 73.2%
  % T/C on day 12: 76.7%
  % T/C on day 14: 83.1%
[3]; [17]
  % T/C on day 0: 100.3%
  % T/C on day 2: 81.2%
  % T/C on day 5: 82.3%
  % T/C on day 7: 81.1%
  % T/C on day 9: 75.6%
  % T/C on day 12: 69.6%
  % T/C on day 14: 60.7%
[4]; Homo sapiens, IGROV-1, 72 h
  IC50: 90 µM
[5]; Homo sapiens, A549, 72 h
  IC50: 92.3 µM
[6]; Homo sapiens, HGC-27, 72 h
  IC50: 10 µM
[7]; Homo sapiens, HT-29, 72 h
  IC50: 9 µM
[8]
  IC50: 1000 µM
[9]; Homo sapiens, MDA-MB-231, 72 h
  IC50: 90 µM
[10]; Homo sapiens, RXF 393, 72 h
  IC50: 300 µM
[11]; Homo sapiens, PC-3, 72 h
  IC50: 1000 µM

## Cc1c2oc3c(C)ccc(C(=O)N[C@@H]4C(=O)N[C@H](C(C)C)C(=O)N5CCC[C@H]5C(=O)N(C)CC(=O)N(C)[C@@H](C(C)C)C(=O)O[C@@H]4C)c3nc-2c(C(=O)N[C@@H]2C(=O)N[C@H](C(C)C)C(=O)N3CCC[C@H]3C(=O)N(C)CC(=O)N(C)[C@@H](C(C)C)C(=O)O[C@@H]2C)c(N)c1=O [Actinomycin D, actinomycin D] (I: T[dV]P[Sar][NMeV] / II: T[dV]P[Sar][NMeV]; ester I:1-I:C, II:1-II:C; linker I:N-II:N via Actinocin(9to1))
[12]; A673, 72 hours drug exposure, MTT
  IC50: 0.000956 µM
[4]; IGROV-1, 72 hours drug exposure, MTT
  IC50: 0.00329 µM
[13]; PANC-1, 72 hours drug exposure, MTT
  IC50: 0.022 µM
[5]; A549, 72 hours drug exposure, MTT, read-out: IC50
  IC50: 0.0047 µM
[6]; HGC-27, 72 hours drug exposure, MTT
  IC50: 0.00374 µM
[7]; HT-29, 72 hours drug exposure, MTT
  IC50: 0.00327 µM
[9]; MDA-MB-231, 72 hours drug exposure, MTT
  IC50: 0.000454 µM
[10]; RXF-393, 72 hours drug exposure, MTT
  IC50: 0.000709 µM
[11]; PC-3, 72 hours drug exposure, MTT
  IC50: 0.01 µM

## CC(C)C[C@H](NC(=O)[C@H](Cc1ccccc1)NC(=O)c1cnccn1)B(O)O [Bortezomib, bortezomib]
[1]
  IC50: 0.39 µM
[13]; Homo sapiens, PANC-1, 72 h
  IC50: 0.416 µM
[5]; Homo sapiens, A549, 72 h
  IC50: 0.0031 µM
[6]; Homo sapiens, HGC-27, 72 h
  IC50: 0.0056 µM
[7]; Homo sapiens, HT-29, 72 h
  IC50: 0.00615 µM
[8]
  IC50: 0.4 µM
[11]; Homo sapiens, PC-3, 72 h
  IC50: 0.8 µM

## CN(C)/N=N/c1[nH]cnc1C(N)=O [Dacarbazine, dacarbazine]
[12]; Homo sapiens, A673, 72 h
  IC50: 300 µM
[2]
  IC50: 630 µM
[4]; Homo sapiens, IGROV-1, 72 h
  IC50: 398 µM
[14]; Dacarbazine 37.5 mg/kg
  % T/C on day 0: 100%
  % T/C on day 2: 51.8%
  % T/C on day 4: 54.3%
  % T/C on day 7: 65.4%
  % T/C on day 9: 61.3%
  % T/C on day 11: 47.9%
  % T/C on day 14: 55.1%
  % T/C on day 16: 62.1%
[14]; Dacarbazine 112.5 mg/kg
  % T/C on day 0: 100%
  % T/C on day 2: 48.1%
  % T/C on day 4: 34.3%
  % T/C on day 7: 53.8%
  % T/C on day 9: 48.0%
  % T/C on day 11: 37.5%
  % T/C on day 14: 43.2%
  % T/C on day 16: 53.2%
[14]; Dacarbazine 150.0 mg/kg
  % T/C on day 0: 100%
  % T/C on day 2: 40.7%
  % T/C on day 4: 28.6%
  % T/C on day 7: 30.8%
  % T/C on day 9: 44.0%
  % T/C on day 11: 37.5%
  % T/C on day 14: 44.9%
  % T/C on day 16: 57.3%
[5]; Homo sapiens, A549, 72 h
  IC50: 600 µM
[6]; Homo sapiens, HGC-27, 72 h
  IC50: 346 µM
[7]; Homo sapiens, HT-29, 72 h
  IC50: 24.7 µM
[8]
  IC50: 700 µM
[9]; Homo sapiens, MDA-MB-231, 72 h
  IC50: 19.2 µM
[10]; Homo sapiens, RXF 393, 72 h
  IC50: 794 µM
